{"source": "patent US11008572B2", "about": "“Methods and compositions for modulating splicing” (SKYHAWK THERAPEUTICS, INC., priority 2017, dated 2021)", "assay_type_in_all_cases": "cell-based", "key": {"SMN2^FL mRNA": {"test_system": "SMN2^FL mRNA", "assay": "SMN2 splicing assay, real-time quantitative PCR, SMA type I patient cells (GM03813)", "conditions": "Homo sapiens, 24 hours", "procedure": "(§1) Various cells lines were treated with the SMSMs described herein. RNA was then isolated, cDNA synthesized, qPCR performed and the levels of various mRNA targets of the SMSMs were determined. In some instances, RNA was isolated, cDNA synthesized, qPCR performed and the levels of mRNA isoforms in the various cell samples were determined.\n(§2) SMA type I patient cells (GM03813 (Coriell))\n(§3) On the day of the experiment, a 96-well plate was seeded with the cell lines of interest. The cells were diluted with full growth media to a concentration of 2.0×10^5 cells/mL and 100 μL of cells were added to each well (20,000 cells per well). The cells were treated with a compound immediately after plating.\n(§4) The compounds were then added to the cell plate using the HP compound dispenser. In the initial experiment, a top concentration of 10 μM and an 8 point 4-fold dilution scheme was used. The stock compounds were made at a concentration of 5 mM, and the DMSO concentration was set to 0.2%. DMSO was used to normalize all the compound-containing wells and the untreated cells.\n(§5) The treated cells were incubated at 37° C. in a 5% CO2 incubator for the desired amount of time. Plates were placed in a plastic bag with a wet paper towel to prevent evaporation.\n(§6) RNA was isolated using the Cells to CT kit (ThermoFisher, AM1728). The cells were washed once with 100 μL cold PBS. 50 μL of lysis buffer was added to each well/tube (49.5 μL lysis buffer+0.5 μL DNase I per well/tube). The lysis reaction was mixed and incubated at room temperature for 5 minutes. 5 μL of stop solution was added directly into each cell lysis reaction and mixed by pipetting up and down 5 times. The plates/tubes were incubated at room temperature for 2 minutes then placed on ice if the cDNA synthesis was to be performed immediately. Otherwise, the plates/tubes were stored at −80° C.\n(§7) cDNA synthesis reactions were then performed. 40 μL RT master mix was added to PCR tubes or plate wells. 10 μL of RNA was added to each tube/well. The RT thermal cycler program was then run and tubes or plate wells were incubated at 37° C. for 1 hour, then at 95° C. for 5 minutes to deactivate the enzyme.\n(§8) The qPCR was performed using a QuantStudio 6instrument (ThermoFisher) and the following cycling conditions and according to the tables below. All samples and standards were analyzed in triplicate. Cycle 1: 2 minutes at 50° C. Cycle 2: 10 minutes at 95′C. Cycle 3 (repeat 40 times): 15 seconds at 95° C., 1 minute at 60° C.\n(§9) The determined SMN2^Δ7 and SMN2^FL quantities were then be used to determine the SMN2^Δ7:SMN2^FL ratio at the various compound concentrations. The PPIA quantities were used in the normalization to account of cell proliferation effects of the compounds.\n(§10) An assay to measure the SMN2^FL mRNA and SMN2^Δ7 mRNA simultaneously in cell wells was performed. The RNA values were measured relative to DMSO control and also included a housekeeping gene, PPIA to ensure data was consistent. The mRNA values were measured after 24 hours of incubation with the SMSM compounds.\n(§11) Additionally, to monitor expression levels of SMN2 splice variant using real-time quantitative PCR, SMA type I patient cells (GM03813 (Coriell)) were plated at 5,000 cells/well in 200 μl Dulbecco's modified Eagle's medium (DMEM) with GlutaMAX and 10% fetal bovine serum (FBS) (Life Technologies, Inc.) in 96-well plates, and incubated for 6 hours in a cell culture incubator. Cells were then treated with SMSMs at different concentrations (0.5% DMSO) in duplicate for 24 hours. After removal of the supernatant, cells were lysed in Cells-To-Ct lysis buffer (Life Technologies, Inc.) according to the manufacturer's recommendations. The mRNA levels of SMN2 FL, SMN2 A7 were quantified using Taqman-based RT-qPCR and SMN2-specific primers and probes. The SMN2 forward and reverse primers were each used at a final concentration of 0.4 μM. The SMN2 probe was used at a final concentration of 0.1 μM. […]"}, "SMN2^Δ7 mRNA": {"test_system": "SMN2^Δ7 mRNA", "assay": "SMN2 splicing assay, real-time quantitative PCR, SMA type I patient cells (GM03813)", "conditions": "Homo sapiens, 24 hours", "procedure": "as §1, §2, §3, §4, §5, §6, §7, §8, §9, §10, §11"}, "[1]": {"test_system": "FOXM1^A2 mRNA and FOXM1^BC mRNA", "assay": "Splicing assay (FOXM1), qPCR of isoform mRNAs", "conditions": "for EC50: read-out: Splice EC50 (nM) FoxM1 A mRNA increase (exon excluded)", "outline": "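RT-qPCR read-out after 24 h compound exposure at 37° C., 0.2% DMSO, top dose 10 μM with 4-fold 8-point dilutions, 20,000 cells per well. Copy numbers from plasmid standard curves, PPIA-normalized, expressed as isoform ratio relative to DMSO.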"}, "[2]": {"conditions": "24 h, MDA-MB-231-luc cells, 24 hours, table does not say EC50 or IC50, read-out: FOXM1"}, "[3]": {"conditions": "24 h, U-118 cells, 24 hours, table does not say EC50 or IC50, read-out: FOXM1"}, "[4]": {"conditions": "FoxM1 BC mRNA decrease (exon included), read-out: Splice IC50 (nM) FoxM1 BC mRNA decrease (exon included)"}, "[5]": {"conditions": "Homo sapiens, A673, 24 h, A-673 cells, 24 hours, table does not say EC50 or IC50, read-out: FOXM1"}, "[6]": {"conditions": "Homo sapiens, A-375, 24 h, A-375 cells, 24 hours, table does not say EC50 or IC50, read-out: FOXM1"}, "[7]": {"conditions": "Homo sapiens, BXPC-3, 24 h, BxPC-3 cells, 24 hours, table does not say EC50 or IC50, read-out: FOXM1"}, "[8]": {"conditions": "Homo sapiens, Z-138, 24 h, Z-138 cells, 24 hours, table does not say EC50 or IC50, read-out: FOXM1"}}, "note": "Read-outs that look alike come from different tables or passages of the source.", "data": [{"smiles": "CN(c1ccc(-c2ccc(-c3cn[nH]c3)cc2O)nn1)[C@@H]1C[C@H]2CC[C@@H](C1)N2", "note": "[compound 138, 2-(6-(((1R,3s,5S)-8-azabicyclo[3.2.1]octan-3-yl)(methyl)amino)pyridazin-3-yl)-5-(1H-pyrazol-4-yl)phenol]", "values": [{"measurement": "EC50", "setting": "SMN2^FL mRNA", "result": 1, "unit": "nM"}, {"measurement": "IC50", "setting": "SMN2^Δ7 mRNA", "result": 1, "unit": "nM"}, {"measurement": "IC50", "setting": "[1]; [2]", "result": "11 to 100", "unit": "nM"}, {"measurement": "IC50", "setting": "[1]; [3]", "result": "11 to 100", "unit": "nM"}, {"measurement": "IC50", "setting": "[1]; [4]", "result": "10 to 100", "unit": "nM"}, {"measurement": "IC50", "setting": "[1]; [5]", "result": "11 to 100", "unit": "nM"}, {"measurement": "IC50", "setting": "[1]; [6]", "result": "1 to 10", "unit": "nM"}, {"measurement": "IC50", "setting": "[1]; [7]", "result": "101 to 200", "unit": "nM"}, {"measurement": "IC50", "setting": "[1]; Homo sapiens, DU-145, 24 h, DU-145 cells, 24 hours, table does not say EC50 or IC50, read-out: FOXM1", "result": "11 to 100", "unit": "nM"}, {"measurement": "IC50", "setting": "[1]; Homo sapiens, Daoy, 24 h, Daoy cells, 24 hours, table does not say EC50 or IC50, read-out: FOXM1", "result": "11 to 100", "unit": "nM"}, {"measurement": "IC50", "setting": "[1]; Homo sapiens, G-401, 24 h, G-401 cells, 24 hours, table does not say EC50 or IC50, read-out: FOXM1", "result": "101 to 200", "unit": "nM"}, {"measurement": "IC50", "setting": "[1]; Homo sapiens, SH-SY5Y, 24 h, SH-SY5Y cells, 24 hours, table does not say EC50 or IC50, read-out: FOXM1", "result": "11 to 100", "unit": "nM"}, {"measurement": "IC50", "setting": "[1]; Homo sapiens, TT, 24 h, T.T cells, 24 hours, table does not say EC50 or IC50, read-out: FOXM1", "result": "11 to 100", "unit": "nM"}, {"measurement": "IC50", "setting": "[1]; [8]", "result": "11 to 100", "unit": "nM"}, {"measurement": "EC50", "setting": "[1]", "result": "10 to 100", "unit": "nM"}]}, {"smiles": "CN(c1ccc(-c2ccc(-c3cn[nH]c3)cc2O)nn1)[C@H]1C[C@]2(C)CC[C@](C)(C1)N2", "note": "[compound 151, 2-(6-(((1R,3s,5S)-1,5-dimethyl-8-azabicyclo[3.2.1]octan-3-yl)(methyl)amino)pyridazin-3-yl)-5-(1H-pyrazol-4-yl)phenol]", "values": [{"measurement": "EC50", "setting": "SMN2^FL mRNA", "result": 0.7, "unit": "nM"}, {"measurement": "IC50", "setting": "SMN2^Δ7 mRNA", "result": 0.9, "unit": "nM"}, {"measurement": "IC50", "setting": "[1]; [4]", "result": "< 10", "unit": "nM"}, {"measurement": "IC50", "setting": "[1]; [5]", "result": "1 to 10", "unit": "nM"}, {"measurement": "IC50", "setting": "[1]; [6]", "result": "1 to 10", "unit": "nM"}, {"measurement": "IC50", "setting": "[1]; Homo sapiens, Hep3B, 24 h, Hep-3B cells, 24 hours, table does not say EC50 or IC50, read-out: FOXM1", "result": "101 to 200", "unit": "nM"}, {"measurement": "IC50", "setting": "[1]; Homo sapiens, K562, 24 h, K-562 cells, 24 hours, table does not say EC50 or IC50, read-out: FOXM1", "result": "11 to 100", "unit": "nM"}, {"measurement": "IC50", "setting": "[1]; Homo sapiens, MDA-MB-468, 24 h, MDA-MB-468 cells, 24 hours, table does not say EC50 or IC50, read-out: FOXM1", "result": "11 to 100", "unit": "nM"}, {"measurement": "IC50", "setting": "[1]; Homo sapiens, NCI-H358, 24 h, NCI-H358 cells, 24 hours, table does not say EC50 or IC50, read-out: FOXM1", "result": "1 to 10", "unit": "nM"}, {"measurement": "IC50", "setting": "[1]; Homo sapiens, PANC-1, 24 h, PANC-1 cells, 24 hours, table does not say EC50 or IC50, read-out: FOXM1", "result": "101 to 200", "unit": "nM"}, {"measurement": "IC50", "setting": "[1]; Homo sapiens, PC-3, 24 h, PC-3 cells, 24 hours, table does not say EC50 or IC50, read-out: FOXM1", "result": "11 to 100", "unit": "nM"}, {"measurement": "IC50", "setting": "[1]; Homo sapiens, U-87 MG, 24 h, U-87MG cells, 24 hours, table does not say EC50 or IC50, read-out: FOXM1", "result": "11 to 100", "unit": "nM"}, {"measurement": "EC50", "setting": "[1]", "result": "< 10", "unit": "nM"}]}, {"smiles": "CN(c1ccc(-c2ccc(-c3cn[nH]c3)cc2O)nn1)[C@@H]1C[C@H]2CCC[C@@H](C1)N2", "note": "[compound 160, 2-(6-(((1R,3s,5S)-9-azabicyclo[3.3.1]nonan-3-yl)(methyl)amino)pyridazin-3-yl)-5-(1H-pyrazol-4-yl)phenol]", "values": [{"measurement": "EC50", "setting": "SMN2^FL mRNA", "result": 0.6, "unit": "nM"}, {"measurement": "IC50", "setting": "SMN2^Δ7 mRNA", "result": 0.7, "unit": "nM"}, {"measurement": "IC50", "setting": "[1]; [2]", "result": "11 to 100", "unit": "nM"}, {"measurement": "IC50", "setting": "[1]; [3]", "result": "1 to 10", "unit": "nM"}, {"measurement": "IC50", "setting": "[1]; [4]", "result": "< 10", "unit": "nM"}, {"measurement": "IC50", "setting": "[1]; [5]", "result": "1 to 10", "unit": "nM"}, {"measurement": "IC50", "setting": "[1]; [6]", "result": "< 1", "unit": "nM"}, {"measurement": "IC50", "setting": "[1]; [7]", "result": "11 to 100", "unit": "nM"}, {"measurement": "IC50", "setting": "[1]; [8]", "result": "1 to 10", "unit": "nM"}, {"measurement": "EC50", "setting": "[1]", "result": "< 10", "unit": "nM"}]}]}
